According to patent US11447638B2, “Acetalanthraquinone derivatives useful for cellular staining” (BIOSTATUS LIMITED, priority 2016, dated 2022):

Experiments:
[1] = Absorption and fluorescence spectra of compounds in PBS or HEPES; type: physicochemical; conditions: for peak excitation wavelength: excitation wavelength used for fluorescence spectra of FIG. 1A/1B; for fluorescence emission, 540 nm (Ex in PBS): excited at 540 nm; for fluorescence emission, 540 nm (Ex in PBS) / fluorescence emission, λ1 nm (Ex in HEPES) / fluorescence emission, λ1 nm (Ex in PBS): 20 μM; for fluorescence emission, λ1 nm (Ex in HEPES) / fluorescence emission, λ1 nm (Ex in PBS): excited at absorption peak 1 (λ1)
Summary of the method: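 Compounds (20 μM working solutions) in PBS or HEPES, read in quartz cuvette against buffer baseline, absorbance scanned 280–800 nm. Emission scanned 400–900 nm in 1 nm steps with excitation at each compound's first absorption peak or 540 nm, ten reads per point. DRAQ5 served as reference; spectra normalised to peak.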

[2] = test system: fixed human osteosarcoma U-2 OS cells; assay: Labelling of fixed cells, wide-field fluorescence microscopy; type: cell-based; conditions: 20 μM, 1 h exposure in PBS, FIG. 2
Summary of the method: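 U-2 OS cells fixed 24 or 48 h after seeding with 4% paraformaldehyde for 30 min, then labelled with AAQ agents at 20 μM (DRAQ5 20 μM as reference) in PBS at 37° C in the dark. Imaged without washing after 1 h by wide-field fluorescence, ×10 0.3 NA objective, for red signal and cellular location.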

A549 live cells = assay: Loading of A549 live cells, wide-field fluorescence microscopy; type: cell-based, human; conditions: 20 μM, 30 min incubation, FIG. 3
Summary of the method: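 Live A549 cells incubated 30 min at 37° C. in the dark with compound at 20 μM (DRAQ5 at 20 μM as reference), imaged unwashed. Uptake and localisation of red fluorescence assessed by low-resolution wide-field fluorescence microscopy, ×10 0.3 NA objective, 30 ms exposure.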

MCF7 = assay: MTT cellular viability (growth inhibition) assay, MCF7; type: cell-based; conditions: Homo sapiens, 0.25-100 μM, 72 h, Table 3
Summary of the method: (§1)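 Cells seeded at 1×10^4 cells/mL in R10, allowed to adhere overnight at 37 °C, 5% CO2. Compounds tested at 0.25–100 μM for 72 h; MTT read-out gave growth-inhibition IC50.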

A549 = assay: MTT cellular viability (growth inhibition) assay, A549; type: cell-based; conditions: Homo sapiens, 0.25-100 μM, 72 h, Table 3
Summary of the method: as §1

| SMILES | peak excitation wavelength [1] | fluorescence emission, 540 nm (Ex in PBS) [1] | fluorescence emission, λ1 nm (Ex in HEPES) [1] | fluorescence emission, λ1 nm (Ex in PBS) [1] | fluorescence brightness / background in fixed cells [2] | staining pattern in fixed cells [2] | fluorescence brightness / background in live cells (A549 live cells) | IC50 (MCF7) | IC50 (A549) |
| --- | --- | --- | --- | --- | --- | --- | --- | --- | --- |
| COC(CC(=O)NCCNc1ccc(NCCN(C)C)c2c1C(=O)c1ccccc1C2=O)OC [BST-110, N-(2-(4-(2-(dimethylamino)ethylamino)-9,10-dioxo-9,10-dihydroanthracen-1-ylamino)ethyl)-3,3-dimethoxypropanamide] | 583 nm | 662 nm | 660 nm | 665.5 nm | very high background fluorescence | cytoplasmic staining and heterogeneity on labelling of mitotic figures | very bright cellular fluorescence | 19.5 µM | 22.3 µM |
| COC(CNC(=O)CCNc1ccc(NCCN(C)C)c2c1C(=O)c1ccccc1C2=O)OC [BST-109, N-(2,2-Dimethoxyethyl)-3-(4-(2-(dimethylamino)ethylamino)-9,10-dioxo-9,10-dihydroanthracen-1-ylamino)propanamide] | 584 nm | 660 nm | 660 nm | 666 nm | – | heterogeneity in cytoplasmic staining and positive spots in the nuclei | very bright cellular fluorescence | 15.7 µM | 22.5 µM |
